In patent US5480887A, “Protease inhibitors” (Eli Lilly and Company, priority 1994, dated 1996):
Where two headings read alike, the source gives them in different places.

How the values were obtained:
HIV-1 Protease = target: T1, HIV-1 Protease (Human immunodeficiency virus type 1 group M subtype B, UniProt P04585); assay: biochemical; settings: for IC50: read-out: Fluorescence Assay IC50 (converted); for inhibition at 0.00016 µg/mL: read-out: % inhibition at the stated concentration (ICx (0.16))
T1 construct: HIV-1 Protease
Description: These compounds may be assayed using two assays: (1) an enzyme inhibition assay, and (2) an antiviral cell culture assay.
This assay is described in detail in published European Patent Application (EPA) 0 526 009, herein incorporated by reference. Using this assay, a number of the compounds, prepared above, were assayed for HIV protease inhibitory activity.
The assay is unable to test compounds at less than a concentration of 0.16 ng/mL.

HIV = assay: microbe, parasite or virus in culture; format: cell-based; settings: XTT, 450 nm, * (n) = average of n assays, read-out: Antiviral Activity IC90
Description: In addition, the compounds described in the present application may be tested using an antiviral cell culture assay as described in Weislow, O.S., J. of National Cancer Institute, 81(8), pages 577-586 (Apr. 19, 1989) herein incorporated by reference.
This assay compares the viability of HIV-infected cells in a cell culture medium relative to the viability of such cells in the presence of a test compound. The concentration of test compound necessary to inhibit 90% of the virus is then measured using the viability of the cells as an indicator of viral inhibition. This assay is carried out using cell lines that are sensitive to the lyric effects of HIV infection.
Specifically, this assay utilizes the metabolic reduction of a tetrazolium reagent, 2,3-bis[2-methoxy-4-nitro-5-sulfophenyl]-5-[(phenylamino)carbonyl]-2H-tetrazolium hydroxide (XTT). In the presence of a viable cell, the tetrazolium reagent, XTT, is reduced to provide XTT formazan which may be quantified using colorimetric determination (at 450 nm). The intensity of the chromogenic signal is directly proportional to the concentration of the XTT formazan, thus providing a measure of the quantity of viable cells.

[1] = concentration inhibiting 50% of the enzyme, * = calculated average with n number of assays
[2] = Human immunodeficiency virus 1, concentration inhibiting 90% of the viral-induced toxicity
[3] = concentration inhibiting 90% of the viral-induced toxicity

Row | Compound | IC90 (HIV; [2]) [µM] | IC50 (HIV-1 Protease) [µM] | also measured
1 | CC(C)[C@@H]1SCC[C@@H]1OC(=O)N[C@@H](CSc1ccccc1)[C@H](O)CN1C[C@H]2CCS[C@H]2C[C@H]1C(=O)NC(C)(C)C [9B-23 mg sample] | 0.604 | – | IC50 (HIV-1 Protease; [1]): 0.00262 µM
2 | CC(C)[C@H]1SCC[C@H]1OC(=O)N[C@@H](CSc1ccccc1)[C@H](O)CN1C[C@H]2CCS[C@H]2C[C@H]1C(=O)NC(C)(C)C [9B-24 mg sample] | 0.078 | – | inhibition at 0.00016 µg/mL (HIV-1 Protease; at 0.16 ng/mL, lowest testable concentration): 53%
3 | CC(C)[C@H]1[C@@H](OC(=O)N[C@@H](CSc2ccccc2)[C@H](O)CN2C[C@H]3CCS[C@H]3C[C@H]2C(=O)NC(C)(C)C)CCS1(=O)=O [10B-51 mg sample] | 0.077 | 0.00095 | –
4 | CC(C)[C@@H]1[C@H](OC(=O)N[C@@H](CSc2ccccc2)[C@H](O)CN2C[C@H]3CCS[C@H]3C[C@H]2C(=O)NC(C)(C)C)CCS1(=O)=O [10B-52 mg sample] | 0.009 | 0.000421 | –
5 | CC(C)(C)NC(=O)[C@@H]1C[C@@H]2SCC[C@@H]2CN1C[C@@H](O)[C@H](CSc1ccccc1)NC(=O)O[C@H]1CCS(=O)(=O)C1 [11C-6 mg sample] | 0.029 | – | IC50 (HIV-1 Protease; [1]): 0.002 µM
6 | CC(C)(C)NC(=O)[C@@H]1C[C@@H]2SCC[C@@H]2CN1C[C@@H](O)[C@H](CSc1ccccc1)NC(=O)O[C@@H]1CCS(=O)(=O)C1 [11C-11 mg sample] | 0.026 | – | IC50 (HIV-1 Protease; [1]): 0.00152 µM
7 | C[C@H]1OCC[C@H]1OC(=O)N[C@@H](CSc1ccccc1)[C@H](O)CN1C[C@H]2CCS[C@H]2C[C@H]1C(=O)NC(C)(C)C [13B-17 mg sample] | 0.88 | 0.00272 | –
8 | C[C@@H]1OCC[C@@H]1OC(=O)N[C@@H](CSc1ccccc1)[C@H](O)CN1C[C@H]2CCS[C@H]2C[C@H]1C(=O)NC(C)(C)C [13B-26 mg sample] | 0.09 | – | inhibition at 0.00016 µg/mL (HIV-1 Protease): 71%
9 | C[C@@H]1[C@H](OC(=O)N[C@@H](CSc2ccccc2)[C@H](O)CN2C[C@H]3CCS[C@H]3C[C@H]2C(=O)NC(C)(C)C)CCS1(=O)=O [31D-Fraction A] | – | – | IC90 (HIV; [3]): 0.0303 µM
10 | C[C@H]1[C@@H](OC(=O)N[C@@H](CSc2ccccc2)[C@H](O)CN2C[C@H]3CCS[C@H]3C[C@H]2C(=O)NC(C)(C)C)CCS1(=O)=O [31D-Fraction B] | – | – | IC90 (HIV; [3]): 0.0314 µM
11 | C[C@@H]1[C@@H](OC(=O)N[C@@H](CSc2ccccc2)[C@H](O)CN2C[C@H]3CCS[C@H]3C[C@H]2C(=O)NC(C)(C)C)CCS1(=O)=O [34-Fraction A] | 0.0452 | 0.00728 | –
12 | C[C@H]1[C@H](OC(=O)N[C@@H](CSc2ccccc2)[C@H](O)CN2C[C@H]3CCS[C@H]3C[C@H]2C(=O)NC(C)(C)C)CCS1(=O)=O [34-Fraction B] | 0.0321 | 0.0274 | –
13 | CC(C)(C)NC(=O)[C@@H]1C[C@@H]2SCC[C@@H]2CN1C[C@@H](O)[C@H](CSc1ccccc1)NC(=O)[C@H](CC(N)=O)NC(=O)c1ccc2ccccc2n1 [Example 14C] | 0.028 | – | –
14 | CC(C)(C)NC(=O)[C@@H]1C[C@@H]2SCC[C@@H]2CN1C[C@@H](O)[C@H](Cc1ccccc1)NC(=O)[C@@H](CS(=O)(=O)c1cccc2cccnc12)NC(=O)C(F)(F)F [Example 24B, N-t-Butyl-octahydro-5[2R-hydroxy-3S-phenylmethyl-4-aza-5-oxo-6S-N(trifluoromethylcarbonyl)amino-7-quinolin-8-ylsulfonyl-heptyl]-(3aR,7aS)-thieno[3,2-c]pyridine-(6S)-carboxamide] | 0.0818 | – | –
15 | CC(C)[C@@H]1[C@H](OC(=O)N[C@@H](CSc2ccccc2)[C@H](O)CN2C[C@H]3CCS[C@H]3C[C@H]2C(=O)NC(C)(C)C)CCS1(=O)=O [Example 40D, N-t-Butyl-octahydro-5[2R-hydroxy-3R-N(1',1'-dioxo-2'R-isopropyl-tetrahydrothiophen-3'R-yloxycarbonyl)amino-4-phenylthio-)-butyl]-(3aR,7aS)-thieno[3,2-c] pyridine-(6S)-carboxamide methanesulfonate] | 0.0071 | – | –
